Assay results as given in publication PMC5653977 (EMBO Molecular Medicine, 2017).
Counter-ions that a name gives are not always drawn.

System: NRG1-ERBB4 signaling
Assay: Nrg1-ERBB4-PIK3R1 split TEV co-culture compound screen of the NIH Clinical Collection
Assay type: cell-based, human
[1] = compounds at 10 μM, 24 h, PC12 split TEV assay cells co-cultured with Nrg1-expressing PC12 cells, analysed with cellHTS2
[2] = compound screen of the NIH Clinical Collection, sheet raw data NCC-003, compounds ranked by Z-score
[3] = NIH Clinical Collection NCC-003 raw data, compounds ranked by Z-score, 'flagged' given instead of a Z-score

Structure (SMILES) | Z-SCORE [1] | Z-SCORE [2] | further results
CCCNCC(O)COc1ccccc1C(=O)CCc1ccccc1 (stereo not drawn) [Rythmol, reference compound] | 0.2 |  | 
CC(C)(C)NCC(O)c1ccc(O)c(CO)c1.CC(C)(C)NCC(O)c1ccc(O)c(CO)c1.O=S(=O)(O)O (stereo not drawn) [SALBUTAMOL SULFATE] |  | -0.61 | 
CC(C)(C)NC(=O)[C@@H]1C[C@@H]2CCCC[C@@H]2CN1C[C@@H](O)[C@H](Cc1ccccc1)NC(=O)[C@H](CC(N)=O)NC(=O)c1ccc2ccccc2n1 [SAQUINAVIR MESYLATE] |  | -0.84 | 
CN1CC[C@]2(c3cccc(O)c3)Cc3nc4ccccc4cc3C[C@H]2C1 [SB 205607] |  | 0.19 | 
C=C(C)CN1CC[C@]23c4c5ccc(O)c4O[C@H]2c2[nH]c4ccccc4c2C[C@@]3(O)C1C5.Cl.O [SDM25N] |  | -0.11 | 
COc1cc(C[C@@H](CO)[C@H](CO)Cc2ccc(O)c(OC)c2)ccc1O [SECOISOLARICIRESINOL] |  | -0.17 | 
CC(C)CC(N(C)C)C1(c2ccc(Cl)cc2)CCC1.Cl (stereo not drawn) [SIBUTRAMINE HCl] |  |  | Z-SCORE [3]: -1.35
CN[C@@H]1[C@H](O)[C@H](NC)[C@H]2O[C@@]3(O)C(=O)C[C@@H](C)O[C@H]3O[C@@H]2[C@H]1O.Cl.Cl.O.O.O.O.O [SPECTINOMYCIN DIHYDROCHLORIDE PENTAHYDRATE, reference compound] | 0.04 |  | 
Cl.NC1CCN(c2cccc(Cl)n2)CC1 [SR 57,227A] |  | -0.24 | 
Cc1cn([C@H]2C=C[C@@H](CO)O2)c(=O)[nH]c1=O [STAVUDINE, reference compound] | 0.2 | 0.08 | 
O=C(O)c1cc(/N=N/c2ccc(S(=O)(=O)Nc3ccccn3)cc2)ccc1O [SULFASALAZINE] |  |  | Z-SCORE [3]: -2.84
CNS(=O)(=O)Cc1ccc2[nH]cc(CCN(C)C)c2c1 [SUMATRIPTAN SUCCINATE] |  | -0.07 | 
CNCC(O)c1ccc(O)cc1 (stereo not drawn) [SYNEPHRINE] |  | -0.41 | 
OCc1cc(C(O)CNCCCCCCOCCCCc2ccccc2)ccc1O (stereo not drawn) [Salmeterol] |  | 0.6 | 
C#CCN(C)[C@H](C)Cc1ccccc1 [Selegiline hydrochloride] |  | -0.57 | 
CN[C@H]1CC[C@@H](c2ccc(Cl)c(Cl)c2)c2ccccc21 [Sertraline, reference compound] | flagged | -0.03 | 
CC(C)CC(N(C)C)C1(c2ccc(Cl)cc2)CCC1 (stereo not drawn) [Sibutramine] |  | -0.34 | 
CCC(C)(C)C(=O)O[C@H]1C[C@@H](C)C=C2C=C[C@H](C)[C@H](CC[C@@H]3C[C@@H](O)CC(=O)O3)[C@H]21 [Simvastatin, reference compound] | flagged |  | 
CN(C)CCCN1c2ccccc2Sc2ccc(Cl)cc21 [Sonazine, reference compound] | 0.6 |  | 
CC(C)NCC(O)c1ccc(NS(C)(=O)=O)cc1 (stereo not drawn) [Sotalol hydrochloride] |  | 1.57 | 
C[C@]12Cc3c[nH]nc3C[C@@H]1CC[C@@H]1[C@@H]2CC[C@@]2(C)[C@H]1CC[C@]2(C)O [Stanozolol] |  | 0.07 | 
CC(C)(C)C(O)/C=C/c1ccc2c(c1)OCO2 (stereo not drawn) [Stiripentol] |  | -0.21 | 
CC(=O)NS(=O)(=O)c1ccc(N)cc1 [Sulfacetamide, reference compound] | 0.29 |  | 
Cc1cc(NS(=O)(=O)c2ccc(N)cc2)no1 [Sulfamethoxazole, reference compound] | 0.87 |  | 
O=C1C(CC[S+]([O-])c2ccccc2)C(=O)N(c2ccccc2)N1c1ccccc1 (stereo not drawn) [Sulfinpyrazone, reference compound] | 0.99 |  | 
Cc1noc(NS(=O)(=O)c2ccc(N)cc2)c1C [Sulfisoxazole, reference compound] | 1.21 |  | 

Structure (SMILES) | Z-SCORE [1] | Z-SCORE [2] | further results
CC1=C(CC(=O)O)c2cc(F)ccc2/C1=C\c1ccc([S+](C)[O-])cc1 (stereo not drawn) [Sulindac, reference compound] | 1.51 |  | 
NC12CC3CC(CC(C3)C1)C2 [Symmetrel, reference compound] | 0.15 |  | 
C=CC[C@@H]1/C=C(\C)C[C@H](C)C[C@H](OC)[C@H]2O[C@@](O)(C(=O)C(=O)N3CCCC[C@H]3C(=O)O[C@H](/C(C)=C/[C@@H]3CC[C@@H](O)[C@H](OC)C3)[C@H](C)[C@@H](O)CC1=O)[C@H](C)C[C@@H]2OC [TACROLIMUS] |  |  | Z-SCORE [3]: -1.97
O=C1c2c(O)cc(O)cc2OC(c2ccc(O)c(O)c2)C1O (stereo not drawn) [TAXIFOLIN-(+)] |  | 1.25 | 
[H]/N=C(/NCCCCC)N/N=C/c1c[nH]c2ccc(OC)cc12 [TEGASEROD MALEATE] |  |  | Z-SCORE [3]: flagged
Cn1nnc2c(C(N)=O)ncn2c1=O [TEMOZOLOMIDE] |  | 0.54 | 
CN(C/C=C/C#CC(C)(C)C)Cc1cccc2ccccc12 [TERBINAFINE HCl] |  | -0.44 | 
CN(C)[C@@H]1C(O)=C(C(N)=O)C(=O)[C@@]2(O)C(O)=C3C(=O)c4c(O)cccc4[C@@](C)(O)[C@H]3C[C@@H]12 [TETRACYCLINE, reference compound] | 0.95 |  | 
FC(F)(F)c1cccc(N2CCNCC2)c1 [TFMPP] |  | 1.34 | 
c1ccc2[nH]c(-c3cscn3)nc2c1 [THIABENDAZOLE, reference compound] | -1.42 |  | 
CSc1ccc2c(c1)N(CCC1CCCCN1C)c1ccccc1S2 (stereo not drawn) [THIORIDAZINE HYDROCHLORIDE, reference compound] | flagged |  | 
CN1CCN(CC/C=C2/c3ccccc3Sc3ccc(S(=O)(=O)N(C)C)cc32)CC1 [THIOTHIXENE, reference compound] | 1.3 |  | 
Cc1ccsc1C(=CCCN1CCC[C@@H](C(=O)O)C1)c1sccc1C [TIAGABINE HCl] |  | -0.1 | 
C#C[C@]1(O)CC[C@H]2[C@@H]3[C@H](C)CC4=C(CCC(=O)C4)[C@H]3CC[C@@]21C [TIBOLONE] |  | 2.26 | 
CCS(=O)(=O)CCn1c([N+](=O)[O-])cnc1C [TINIDAZOLE] |  | -0.51 | 
Cc1cccc(C)c1NC(=O)C(C)N (stereo not drawn) [TOCAINIDE] |  | -0.41 | 
Cc1ccc(S(=O)(=O)NC(=O)NN2CCCCCC2)cc1 [TOLAZAMIDE, reference compound] | 0.3 |  | 
Cc1ccc(O)c([C@H](CCN(C(C)C)C(C)C)c2ccccc2)c1 [TOLTERODINE TARTRATE] |  | -1.01 | 
CC1(C)O[C@@H]2[C@@H](CO[C@@]3(COS(N)(=O)=O)OC(C)(C)O[C@@H]23)O1 [TOPIRAMATE] |  | 0.63 | 
Cc1cccc(Nc2ccncc2S(=O)(=O)NC(=O)NC(C)C)c1 [TORASEMIDE] |  | 0.4 | 
CN(C)CCOc1ccc(/C(=C(/CCCl)c2ccccc2)c2ccccc2)cc1 [TOREMIFENE CITRATE] |  |  | Z-SCORE [3]: flagged
NC1CCN(c2nc3c(cc2F)c(=O)c(C(=O)O)cn3-c2ccc(F)cc2F)C1 (stereo not drawn) [TOSUFLOXACIN TOSYLATE] |  | 0.08 | 
O=c1n(CCCN2CCN(c3cccc(Cl)c3)CC2)nc2ccccn12 [TRAZODONE HYDROCHLORIDE] |  | 0.17 | 
O=C(O[C@H]1[C@H](Oc2ccccc2COC(=O)C2(O)C=CCCC2=O)O[C@H](CO)[C@@H](O)[C@@H]1O)c1ccccc1 (stereo partly drawn) [TREMULACIN] |  | 0.29 | 
CC1(C)O[C@@H]2C[C@H]3[C@@H]4CCC5=CC(=O)C=C[C@]5(C)[C@@]4(F)[C@@H](O)C[C@]3(C)[C@]2(C(=O)CO)O1 [TRIAMCINOLONE ACETONIDE, reference compound] | -1.51 |  | 
CSc1nc2cc(Cl)c(Oc3cccc(Cl)c3Cl)cc2[nH]1 [TRICLABENDAZOLE] |  |  | Z-SCORE [3]: -1.39
